Results reported in patent publication US4468385A, “Poly-cation salts of 4-O-poly-hexaose-thio-alkylene sulfate derivatives and method of use” (American Cyanamid Company, priority 1983, dated 1984).
Several values for one entry are separate records, joined by “and”; a condition that tells them apart may be missing. Identical values can stand only once. Counter-ions that a name gives are not always drawn.

Legend:
activated human C1 = activated human C1 (Homo sapiens, UniProt P09871); assay: Test Code 026 (C1 inhibitor): protection of fluid phase human C2 from activated human C1 in the presence of C4; type: biochemical; conditions: serial twofold dilution assay; higher well number indicates higher activity
[1] = test system: total hemolytic complement activity; conditions: in vitro and in vivo, judged by reduction in total hemolytic complement activity; cited from earlier work
[2] = test system: hereditary angioneurotic edema; conditions: literature report; cited from earlier work
complement system = conditions: literature report; cited from earlier work

CC(=O)NC(CCS[C@@H]1O[C@H](COS(=O)(=O)O)[C@@H](O[C@H]2O[C@H](COS(=O)(=O)O)[C@@H](OS(=O)(=O)O)[C@H](OS(=O)(=O)O)[C@H]2OS(=O)(=O)O)[C@H](OS(=O)(=O)O)[C@H]1OS(=O)(=O)O)C(=O)O (stereo partly drawn) [4-[2,3,6-Tri-O-sulfo-4-O-(2,3,4,6-tetra-O-sulfo-α-D-glucopyranosyl)-β-D-glucopyranosyl]-2-acetamido-4-mercaptobutyric acid heptasodium salt]
In vitro Activity Cl 026 Wells (activated human C1): 6 Wells

pentosan- polysulfoester
anticomplementary activity on human serum [1]: anticomplementary activity

NCCCCCC(=O)O [epsilon-aminocaproic acid]
treatment of hereditary angioneurotic edema [2]: used with success

N[C@@H](CS[C@@H]1O[C@H](COS(=O)(=O)O)[C@@H](O[C@H]2O[C@H](COS(=O)(=O)O)[C@@H](OS(=O)(=O)O)[C@H](OS(=O)(=O)O)[C@H]2OS(=O)(=O)O)[C@H](OS(=O)(=O)O)[C@H]1OS(=O)(=O)O)C(=O)O [4-[2,3,6-Tri-O-sulfo-4-O-(2,3,4,6-tetra-O-sulfo-α-D-glucopyranosyl)-β-D-glucopyranosyl]-L-cysteine heptasodium salt]
In vitro Activity Cl 026 Wells (activated human C1): 1 Wells

NC[C@H]1CC[C@H](C(=O)O)CC1 [tranexamic acid]
treatment of hereditary angioneurotic edema [2]: used with success

Nc1ccc2cc(S(=O)(=O)[O-])cc(O)c2c1N=Nc1ccc(NC(=O)Nc2ccc(N=Nc3c(N)ccc4cc(S(=O)(=O)[O-])cc(O)c34)c(S(=O)(=O)[O-])c2)cc1S(=O)(=O)[O-].[Na+].[Na+].[Na+].[Na+] [chlorazol fast pink, 3,3'-ureylenebis[6-(2-amino-8-hydroxy-6-sulfo-1-naphthylazo)benzenesulfonic acid], tetrasodium salt]
anticomplementary effect (complement system): anticomplementary effect

heparin
anticomplementary effect (complement system): anticomplementary effect

O=S(=O)(O)OC[C@H]1O[C@H](O[C@H]2[C@H](O)[C@@H](OS(=O)(=O)O)[C@H](SCC(S)CO)O[C@@H]2COS(=O)(=O)O)[C@H](OS(=O)(=O)O)[C@@H](O)[C@@H]1O (stereo partly drawn) [3-Hydroxy-2-mercaptopropyl 4-O-α-D-glucopyranosyl-1-thio-β-D-glucopyranoside-tetrakis-(H-sulfate) tetrasodium salt]
In vitro Activity Cl 026 Wells (activated human C1): 6 Wells and 9 Wells

O=S(=O)([O-])OC[C@H]1O[C@@H](SCC(O)C(O)CS)[C@H](OS(=O)(=O)[O-])[C@@H](OS(=O)(=O)[O-])[C@@H]1O[C@H]1O[C@H](COS(=O)(=O)[O-])[C@@H](OS(=O)(=O)[O-])[C@H](OS(=O)(=O)[O-])[C@H]1OS(=O)(=O)[O-].[Na+].[Na+].[Na+].[Na+].[Na+].[Na+].[Na+] (stereo partly drawn) [2,3-Dihydroxy-4-mercaptobutyl 2,3,6-tri-O-sulfo-4-O-(2,3,4,6-tetra-O-sulfo-α-D-glucopyranosyl)-1-thio-β-D-glucopyranoside heptasodium salt]
In vitro Activity Cl 026 Wells (activated human C1): 12 Wells
